Measured values published in patent publication US20110190199A1, “Combination Therapy for Tuberculosis” (priority 2008, published 2011).
≈ marks a conversion by molar mass, not a printed value. Where “and” joins values, the source holds several entries; their conditions need not be identical. Identical values can stand only once. Like-named read-outs stand apart in the source and are kept apart here.

Columns and labels:
[1] = system: Mycobacterium tuberculosis H37Rv; format: in vivo, mice
[2] = system: Mycobacterium tuberculosis H37Rv; experiment: MIC by agar dilution on Middlebrook 7H11 agar; format: cell-based; details: 672 h, 7H11 agar + 10% OADC, 28 days at 37°C, lowest concentration to inhibit at least 99% of bacterial growth
[3] = Single-dose and steady-state serum pharmacokinetics in the murine model; format: in vivo, mice
Method: To determine the single-dose and steady-state pharmacokinetic profiles of the compound of formula (I) and LZD in the murine model, a sub-study was nested in the above dose-ranging study using mice treated with the compound of formula (I) at 100 mg/kg once-daily or LZD at 130 mg/kg once- or twice-daily. Three mice per group were sacrificed at 0.5, 1, 2, 4, 8 and 24 hours after the first dose of treatment (D1) and at the aforementioned time points with the addition of a 9 hour time point (i.e., 1 hour after the second daily dose) on Day 24 (D24) of treatment. Mice were anesthetized with chloroform and exsanguinated by cardiac puncture. Whole blood was collected on ice and then centrifuged to obtain serum. Acetonitrile was added to the samples before storage in gasketed screwcap tubes at −20° C. D24 samples were collected and processed in the same manner and stored at −20° C. before being sent together with D1 samples to Pfizer (Groton, Conn.) for determination of drug concentrations. The supernatant was injected (10 μL injection volume) onto the LC (Shimadzu SCL-10A, Kyoto, Japan)-MS/MS (Sciex API 3000, Applied Biosystems Group, Foster City, Calif.) using a Hypersil C18 column (5 μm, 50×2.1 mm, Thermo Electron Corp, Waltham, Mass.) and a step gradient consisting of a mobile phase of A: water with 0.05% 5 mM ammonium formate and B: acetonitrile/water/5 mM ammonium formate (80:20:0.05%). The ionization was electrospray positive ion mode. Bioanalytical data were captured using Analyst (Version 1.4.1, Applied Biosystems Group, Foster City, Calif.). Pharmacokinetic calculations were based on mean serum concentrations and performed using the non-compartmental approach (linear trapezoidal rule for AUC calculation with the aid of Watson 7.2 Bioanalytical LIMS [Thermo Electron Corp, Waltham, Mass.)). […] Concentrations of 0 were used for kinetic calculations for all results below the lower limit of quantitation (5 ng/mL).

[4] = system: Mycobacterium tuberculosis; details: cited from earlier work
[5] = 600-625 mg by mouth twice daily; cited from earlier work
[6] = system: Mycobacterium tuberculosis H37Rv; experiment: Example 8B: eight week dose ranging study (second phase after 4 weeks RHZU25); format: in vivo, mice; design: Lung CFU / CFU-U only: unit not given here; details: for effect of U monotherapy against persisting tubercle bacilli / log reduction with U monotherapy against persisting tubercle bacilli: 4 weeks after initial 4 weeks of RHZU25; for CFU-U only: lung
Method: Eighty of the mice from Group 4 (in Example 8A) that had been receiving 25 mg/kg of the compound of formula I (U) along with rifampin(R), isoniazid(H), and pyrazinamide(Z) were evaluated in the second phase of the study. They were assigned to one of the groups described below in Table 6 and the study was continued for an additional 4 weeks (i.e. 8 week results).
As described above, 5 animals served as the control and no further drugs were given. Five were given the combination of rifampin(R) and isoniazid (H), five given isoniazid (H) or rifampin(R) alone. […] Six of these groups were also dosed with rifampin (R). The rifampin and isoniazid was dosed in the same manner and in the same amount as in Example 8A.
At the conclusion of the eight (8) week experiment, all of the animals were sacrificed and CFU lung counts were obtained.

[7] = system: Mycobacterium tuberculosis H37Rv; experiment: Example 6: in vivo activity of the combination (lung CFU after 4 and 8 weeks); design: species or system mice
[8] = system: Mycobacterium tuberculosis H37Rv; experiment: Example 8C: additional dose ranging study (4 and 8 weeks); format: in vivo, mice; details: lung
Method: The protocol described above in Example 8A and 8B was carried out on an alternative occasion. The only substantive changes were the number of animals per group and the initial incubation period.
Testing continued for an additional 4 weeks with 60 of the mice from Test Group 2 immediately above. The mice either received U alone, at varying doses, or the combination of U and R. The following results were obtained.

M. tuberculosis H37Rv = experiment: Example 9: compound of formula I added to first and second line anti-tuberculosis drugs (survival, lung CFU after 4 weeks); format: in vivo, mice; details: D0 8.36 ± 0.10
[9] = Mycobacterium tuberculosis, literature
[10] = labelled regimen PLUS compound of formula (I) 100 mg/kg/day, INH 25, RIF 10, PZA 150, MXF 100 mg/kg, Day 0 7.37 ± 0.12
[11] = regimen as labelled, INH 25, RIF 10, PZA 150, MXF 100, compound of formula (I) 100 mg/kg, Day 0 7.37 ± 0.12

CC(=O)NC[C@H]1CN(c2ccc(N3CCOCC3)c(F)c2)C(=O)O1 [LZD, linezolid]
log kill (reduction in mean lung CFU count compared to the baseline value) ([1]; mouse, in vivo): 1.46 log10
mean spleen weight ([1]; mouse, in vivo): 200 ± 47 mg and 102 ± 5 mg and 190 ± 52 mg
Mean log10 CFU count (± SD) on Day 28 ([1]; mouse, in vivo, 25 mg/kg): 7.55 ± 0.24 log10 CFU
Mean log10 CFU count (± SD) on Day 28 ([1]; mouse, in vivo, 50 mg/kg): 7.33 ± 0.11 log10 CFU
Mean log10 CFU count (± SD) on Day 28 ([1]; mouse, in vivo, 100 mg/kg): 6.75 ± 0.14 log10 CFU
Mean log10 CFU count (± SD) on Day 28 ([1]; mouse, in vivo, 260 mg/kg): 6.03 ± 0.12 log10 CFU
MIC [2]: 0.25 µg/mL
Cmax higher than that obtained in humans ([3]; 100 mg/kg dose in the mouse, based on linear kinetics): approximately 3 times
steady state AUC higher than anticipated steady state AUC in humans ([3]; mouse 130 mg/kg daily vs humans 600-625 mg twice daily): approximately 50%
AUC(0-t) ([3]; mouse, serum, po, 130 mg/kg, serum, Day 1, LZD 130 mg/kg daily oral, read-out: AUC0-24): 164 µg·h/mL
Cmax ([3]; mouse, serum, po, 130 mg/kg, serum, Day 1, LZD 130 mg/kg daily oral, read-out: Cmax): 64.9 µg/mL
AUC(0-t) ([3]; mouse, serum, po, 130 mg/kg, serum, Day 24, LZD 130 mg/kg daily oral, read-out: AUC0-24 (steady state AUC)): 379 µg·h/mL
Cmax ([3]; mouse, serum, po, 130 mg/kg, serum, Day 24, LZD 130 mg/kg daily oral, read-out: Cmax): 58.4 µg/mL
MIC50 [4, 9]: 0.5 µg/mL (≈ 1.48 µM)
MIC90 [4, 9]: 1 µg/mL (≈ 2.96 µM)
MIC range [4, 9]: 0.125 to 1 µg/mL
steady state AUC observed in humans [5]: 215 to 294 µg·h/mL

CC(=O)NC[C@H]1CN(c2ccc(N3CCSCC3)c(F)c2)C(=O)O1 [compound of formula (I), (S)—N-[[3-[3-fluoro-4-(4-thiomorpholinyl)phenyl]-2-oxo-5-oxazolidinyl]methyl]acetamide]
effect of U monotherapy against persisting tubercle bacilli ([6]; 12.5 mg/kg): growth-inhibitory effect
effect of U monotherapy against persisting tubercle bacilli ([6]; 25 mg/kg): bacteriostatic effect
log reduction with U monotherapy against persisting tubercle bacilli ([6]; 50 mg/kg): > 0.5 log
log reduction with U monotherapy against persisting tubercle bacilli ([6]; 100 mg/kg): > 1 log
log reduction with U monotherapy against persisting tubercle bacilli ([6]; 160 mg/kg): ~2 log
CFU-U only ([6]; 8 weeks: 4 weeks RHZU25 then 4 weeks U 12.5 mg/kg): 4.99 ± 0.19
CFU-U only ([6]; 8 weeks: 4 weeks RHZU25 then 4 weeks U 25 mg/kg): 4.26 ± 0.24
CFU-U only ([6]; 8 weeks: 4 weeks RHZU25 then 4 weeks U 50 mg/kg): 3.56 ± 0.15
CFU-U only ([6]; 8 weeks: 4 weeks RHZU25 then 4 weeks U 50 mg/kg thrice weekly (3/7)): 4.21 ± 0.26
CFU-U only ([6]; 8 weeks: 4 weeks RHZU25 then 4 weeks U 100 mg/kg): 2.88 ± 0.34
CFU-U only ([6]; 8 weeks: 4 weeks RHZU25 then 4 weeks U 160 mg/kg): 2.42 ± 0.31
in vivo potency relative to LZD ([1]; 25 mg/kg as active as LZD 130 mg/kg, AUC about 3-fold lower at 100 mg/kg): 12 times
log kill (reduction in mean lung CFU count compared to the baseline value) ([1]; 25 mg/kg, 28 days): 0.78 log10
mean spleen weight ([1]; 25 mg/kg, after 28 days of treatment, pre-treatment 105±11 mg, untreated 237±16 mg): 113 ± 17 mg
log kill (reduction in mean lung CFU count compared to the baseline value) ([1]; 50 mg/kg, 28 days): 2.21 log10
Mean log10 CFU count (± SD) on Day 28 ([1]; lung, 25 mg/kg once daily, 5 days per week by gavage, Day 0 7.49 ± 0.11): 6.71 ± 0.28 log10 CFU
Mean log10 CFU count (± SD) on Day 28 ([1]; lung, 25 mg/kg twice daily, Day 0 7.49 ± 0.11): 5.51 ± 0.14 log10 CFU
Mean log10 CFU count (± SD) on Day 28 ([1]; lung, 50 mg/kg once daily, Day 0 7.49 ± 0.11, 50 mg/kg): 5.28
Mean log10 CFU count (± SD) on Day 28 ([1]; lung, 50 mg/kg once daily, Day 0 7.49 ± 0.11, listed as Compound of Formula (I), 50 mg/kg): 5.28 ± 0.53 log10 CFU
Mean log10 CFU count (± SD) on Day 28 ([1]; lung, 50 mg/kg twice daily, Day 0 7.49 ± 0.11): 4.89 ± 0.27 log10 CFU
Mean log10 CFU count (± SD) on Day 28 ([1]; lung, 100 mg/kg once daily, Day 0 7.49 ± 0.11): 5.07 ± 0.14 log10 CFU
MIC [2]: 0.25 µg/mL
AUC0-24 ([3]; mouse, in vivo, po, 100 mg/kg): 8.74 µg·h/mL
Cmax ([3]; mouse, in vivo, po, 100 mg/kg): 4.32 µg/mL
AUC(0-t) ([3]; mouse, in vivo, po, 100 mg/kg, AUC0-24): 7.33 µg·h/mL
Cmax ([3]; mouse, in vivo, po, 100 mg/kg, Cmax): 6.07 µg/mL
Lung log10 CFU counts (±SD) after treatment with the indicated regimen plus the compound of formula (I) 100 mg/kg/day, Day 28 [7, 10]: 4.72 ± 0.17 log10 CFU
Lung log10 CFU counts (±SD) after treatment with the indicated regimen plus the compound of formula (I) 100 mg/kg/day, Day 56 [7, 10]: 2.70 ± 0.29 log10 CFU
reduction in lung CFU counts from baseline over the first 28 days ([7]; monotherapy, compound of formula (I) 100, INH 25, RIF 10 mg/kg): 2.65 log10
Lung log10 CFU counts (±SD) after treatment with the indicated regimen, Day 28 [7, 11]: 4.72 log10 CFU
Lung log10 CFU counts (±SD) after treatment with the indicated regimen, Day 56 [7, 11]: 2.70 log10 CFU
CFU Count 8 weeks ([8]; 4 weeks RHZU100 then 4 weeks with U 6.25 mg/kg (alone or with R)): 4.93 ± 0.32
CFU Count 8 weeks ([8]; 4 weeks RHZU100 then 4 weeks with U 12.5 mg/kg (alone or with R)): 5.30 ± 0.08
CFU Count 8 weeks ([8]; 4 weeks RHZU100 then 4 weeks with U 25 mg/kg (alone or with R)): 5.27 ± 0.20
CFU Count 8 weeks ([8]; 4 weeks RHZU100 then 4 weeks with U 50 mg/kg (alone or with R)): 4.59 ± 0.28
CFU Count 8 weeks ([8]; 4 weeks RHZU100 then 4 weeks with U 100 mg/kg (alone or with R)): 3.86 ± 0.53
CFU Count 8 weeks ([8]; 4 weeks RHZU100 then 4 weeks with U 160 mg/kg (alone or with R)): 2.90 ± 0.32
MIC90 against M. tuberculosis ([4]; stated in the pharmacokinetics section (Barbachyn et al.)): 0.25 µg/mL
Mean lung log10 CFU count (±) S.D. after 4 weeks of treatment with: Regimen + U 25 mg/kg (M. tuberculosis H37Rv; labelled drug PLUS U 25 mg/kg): 7.17 ± 0.23 log10 CFU
Mean lung log10 CFU count (±) S.D. after 4 weeks of treatment with: Regimen + U 100 mg/kg (M. tuberculosis H37Rv; labelled drug PLUS U 100 mg/kg, lower limit of detection 3.40): 5.40 ± 0.10 log10 CFU
